Data taken from patent US20250243196A1, “CITRON KINASE INHIBITORS” (The Cleveland Clinic Foundation, priority 2021, published 2025).

Target: Citron kinase (Homo sapiens (Human), UniProt O14578)
Test: Radiometric citron kinase assay (Eurofins Cat #16-040KP)
Assay type: biochemical
Conditions: mean of at least two independent assays; read-out: Radiometric CitK IC50
From the text: In some embodiments, the step of contacting the sample with the compound comprises administering the compound to a subject (e.g., a subject) suffering from cancer. Methods of determining kinase inhibition are well known in the art. For example, kinase activity of an enzyme and the inhibitory capacity of a test compound can be determined by measuring enzyme specific phosphorylation of a substrate. Commercial assays and kits can be employed. For example, kinase inhibition can be determined using a radiometric binding assay, such as using KinaseProfiler™ technology (Eurofins Discovery). This assay method directly detects product formation without the use of modified substrates or coupling enzymes. Test compounds are incubated with kinase, substrate, required cofactors and radioisotope labeled ATP. Following incubation, unreacted radioactive ATP is removed by washing and incorporation of the radiolabeled phosphate into the kinase substrate is assayed to detect phosphoryltransferase activity, which is directly proportional to the amount of phosphorylated substrate. Inhibition of the kinase by a kinase inhibitor prevents phosphorylation of the substrate and thereby limits the incorporation of radiolabeled phosphate. Such an assay is compatible with a microwell assay format, allowing simultaneous determination of IC50 of multiple compounds.
Compounds were screened for biochemical kinase activity (Eurofins Discovery, France) using one of two assays. […] All values in Table 1 are the mean of at least two independent assays.

Citron kinase, sequence (O14578 whole entry): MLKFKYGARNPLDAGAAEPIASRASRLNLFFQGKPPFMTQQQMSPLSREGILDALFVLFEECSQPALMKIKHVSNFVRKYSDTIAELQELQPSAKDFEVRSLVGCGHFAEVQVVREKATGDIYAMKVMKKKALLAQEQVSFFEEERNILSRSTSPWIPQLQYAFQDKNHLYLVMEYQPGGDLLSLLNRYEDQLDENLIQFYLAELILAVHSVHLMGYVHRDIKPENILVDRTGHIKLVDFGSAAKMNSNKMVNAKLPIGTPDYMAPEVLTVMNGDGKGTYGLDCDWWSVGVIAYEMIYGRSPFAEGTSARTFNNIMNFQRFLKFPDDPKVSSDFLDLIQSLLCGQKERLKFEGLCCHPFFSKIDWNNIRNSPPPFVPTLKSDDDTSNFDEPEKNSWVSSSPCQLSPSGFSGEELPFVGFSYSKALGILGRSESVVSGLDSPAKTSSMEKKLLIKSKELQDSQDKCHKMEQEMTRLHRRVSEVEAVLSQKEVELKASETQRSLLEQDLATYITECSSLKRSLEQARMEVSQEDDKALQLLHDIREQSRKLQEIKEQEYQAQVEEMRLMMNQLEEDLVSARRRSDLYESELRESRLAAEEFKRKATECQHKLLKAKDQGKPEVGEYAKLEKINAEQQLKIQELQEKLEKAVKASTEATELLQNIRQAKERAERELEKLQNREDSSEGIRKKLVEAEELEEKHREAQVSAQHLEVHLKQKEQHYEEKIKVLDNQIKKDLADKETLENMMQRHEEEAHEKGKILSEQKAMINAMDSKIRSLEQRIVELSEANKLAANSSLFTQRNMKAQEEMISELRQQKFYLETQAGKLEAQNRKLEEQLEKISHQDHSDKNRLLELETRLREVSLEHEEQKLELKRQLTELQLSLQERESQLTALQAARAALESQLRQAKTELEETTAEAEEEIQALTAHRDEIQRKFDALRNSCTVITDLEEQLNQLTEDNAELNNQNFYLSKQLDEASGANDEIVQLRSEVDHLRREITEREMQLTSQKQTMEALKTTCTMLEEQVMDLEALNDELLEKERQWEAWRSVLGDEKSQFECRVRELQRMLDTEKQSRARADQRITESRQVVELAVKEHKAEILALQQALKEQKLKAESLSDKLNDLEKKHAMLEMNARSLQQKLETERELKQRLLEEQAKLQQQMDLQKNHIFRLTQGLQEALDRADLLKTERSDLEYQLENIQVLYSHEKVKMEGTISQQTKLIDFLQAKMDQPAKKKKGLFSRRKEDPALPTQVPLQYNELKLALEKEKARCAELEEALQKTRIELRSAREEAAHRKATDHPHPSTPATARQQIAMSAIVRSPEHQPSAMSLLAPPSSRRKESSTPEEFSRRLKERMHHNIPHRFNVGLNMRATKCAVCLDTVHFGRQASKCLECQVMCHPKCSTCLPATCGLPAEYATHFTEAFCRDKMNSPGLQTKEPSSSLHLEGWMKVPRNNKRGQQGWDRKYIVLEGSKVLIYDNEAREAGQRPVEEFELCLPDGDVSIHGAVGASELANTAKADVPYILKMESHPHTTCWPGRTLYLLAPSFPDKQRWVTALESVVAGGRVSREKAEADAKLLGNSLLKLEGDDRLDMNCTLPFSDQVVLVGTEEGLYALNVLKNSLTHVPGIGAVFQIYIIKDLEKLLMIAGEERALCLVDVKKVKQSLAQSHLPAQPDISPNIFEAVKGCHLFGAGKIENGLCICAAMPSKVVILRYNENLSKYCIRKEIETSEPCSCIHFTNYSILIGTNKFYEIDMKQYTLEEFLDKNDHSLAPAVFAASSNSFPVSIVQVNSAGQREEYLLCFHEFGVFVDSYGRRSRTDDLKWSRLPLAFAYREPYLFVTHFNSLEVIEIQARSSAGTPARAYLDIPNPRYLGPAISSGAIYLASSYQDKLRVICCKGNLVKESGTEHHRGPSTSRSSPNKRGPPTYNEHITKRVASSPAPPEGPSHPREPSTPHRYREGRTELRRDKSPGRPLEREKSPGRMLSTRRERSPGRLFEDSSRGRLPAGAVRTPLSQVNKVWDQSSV

SMILES	IC50 [nM]
CNCC(=O)Nc1ccc(-c2ccnc3[nH]ccc23)cc1 [Compound F-2, N-(4-(1H-pyrrolo[2,3-b]pyridin-4-yl)phenyl)-2-(methylamino)acetamide]	728
CN(C)CC(=O)Nc1ccc(-c2ccnc3[nH]ccc23)cc1 [Compound F-3, 2-(Dimethylamino)-N-[4-(1H-pyrrolo[2,3-b]pyridin-4-yl)phenyl]acetamide]	1060
C[C@H](N)C(=O)Nc1ccc(-c2ccnc3[nH]ccc23)cc1 [Compound F-4, (2S)-2-Amino-N-[4-(1H-pyrrolo[2,3-b]pyridin-4-yl)phenyl]propenamide]	3000
C[C@@H](N)C(=O)Nc1ccc(-c2ccnc3[nH]ccc23)cc1 [Compound F-5, (2R)-2-Amino-N-[4-(1H-pyrrolo[2,3-b]pyridin-4-yl)phenyl]propenamide]	806
CC[C@H](C)[C@H](N)C(=O)Nc1ccc(-c2ccnc3[nH]ccc23)cc1 [Compound F-10, (2S,3S)-2-Amino-3-methyl-N-[4-(1H-pyrrolo[2,3-b]pyridin-4-yl)phenyl]pentanamide]	91.9
CC[C@@H](C)[C@@H](N)C(=O)Nc1ccc(-c2ccnc3[nH]ccc23)cc1 [Compound F-11, (2R,3R)-2-Amino-3-methyl-N-[4-(1H-pyrrolo[2,3-b]pyridin-4-yl)phenyl]pentanamide]	315
CCC[C@@H](N)C(=O)Nc1ccc(-c2ccnc3[nH]ccc23)cc1 [Compound F-14, (2R)-2-Amino-N-[4-(1H-pyrrolo[2,3-b]pyridin-4-yl)phenyl]pentanamide]	69.6
NC(CC(F)(F)F)C(=O)Nc1ccc(-c2ccnc3[nH]ccc23)cc1 (stereo not drawn) [Compound F-22, 2-Amino-4,4,4-trifluoro-N-[4-(1H-pyrrolo[2,3-b]pyridin-4-yl)phenyl]butanamide]	554
NC(C(=O)Nc1ccc(-c2ccnc3[nH]ccc23)cc1)C1(C(F)(F)F)CC1 (stereo not drawn) [Compound F-23, 2-Amino-N-[4-(1H-pyrrolo[2,3-b]pyridin-4-yl)phenyl]-2-[1-(trifluoromethyl)cyclopropyl]acetamide]	172
N[C@H](CCC(F)(F)F)C(=O)Nc1ccc(-c2ccnc3[nH]ccc23)cc1 [Compound F-24, (2R)-2-Amino-5,5,5-trifluoro-N-[4-(1H-pyrrolo[2,3-b]pyridin-4-yl)phenyl]pentanamide]	66.7
COCCC(N)C(=O)Nc1ccc(-c2ccnc3[nH]ccc23)cc1 (stereo not drawn) [Compound F-26, 2-Amino-4-methoxy-N-[4-(1H-pyrrolo[2,3-b]pyridin-4-yl)phenyl]butanamide]	2470
CC(O)[C@H](N)C(=O)Nc1ccc(-c2ccnc3[nH]ccc23)cc1 (stereo partly drawn) [Compound F-29, (2S)-2-Amino-3-hydroxy-N-[4-(1H-pyrrolo[2,3-b]pyridin-4-yl)phenyl]butanamide]	778
CC(O)[C@@H](N)C(=O)Nc1ccc(-c2ccnc3[nH]ccc23)cc1 (stereo partly drawn) [Compound F-30, (2R)-2-Amino-3-hydroxy-N-[4-(1H-pyrrolo[2,3-b]pyridin-4-yl)phenyl]butanamide]	218
CC(C)(O)[C@@H](N)C(=O)Nc1ccc(-c2ccnc3[nH]ccc23)cc1 [Compound F-31, (2R)-2-Amino-3-hydroxy-3-methyl-N-[4-(1H-pyrrolo[2,3-b]pyridin-4-yl)phenyl]butanamide]	52.4
CCN[C@H](CC(C)C)C(=O)Nc1ccc(-c2ccnc3[nH]ccc23)cc1 [Compound F-43, (2R)-2-(Ethylamino)-4-methyl-N-[4-(1H-pyrrolo[2,3-b]pyridin-4-yl)phenyl]pentanamide]	209
CC(C)C[C@@H](NC1CC1)C(=O)Nc1ccc(-c2ccnc3[nH]ccc23)cc1 [Compound F-44, (2R)-2-(Cyclopropylamino)-4-methyl-N-[4-(1H-pyrrolo[2,3-b]pyridin-4-yl)phenyl]pentanamide]	555
CC(C)C[C@@H](NCC1CC1)C(=O)Nc1ccc(-c2ccnc3[nH]ccc23)cc1 [Compound F-45, (2R)-2-(Cyclopropymethylamino)-4-methyl-N-[4-[1H-pyrrolo[2,3-b]pyridin-4-yl]phenyl]pentanamide]	683
COCCN[C@H](CC(C)C)C(=O)Nc1ccc(-c2ccnc3[nH]ccc23)cc1 [Compound F-46, (2R)-2-(2-Methoxyethylamino)-4-methyl-N-[4-(1H-pyrrolo[2,3-b]pyridin-4-yl)phenyl]pentanamide]	1260

SMILES	IC50 [nM]
CC(C)C[C@@H](NCC(F)(F)F)C(=O)Nc1ccc(-c2ccnc3[nH]ccc23)cc1 [Compound F-47, (2R)-4-Methyl-N-[4-(1H-pyrrolo[2,3-b]pyridin-4-yl)phenyl]-2-(2,2,2-trifluoroethylamino)pentanamide]	3000
Cc1cc2c(-c3ccc(NC(=O)[C@H](N)C(C)(C)C)cc3)ccnc2[nH]1 [Compound F-50, (2R)-2-Amino-3,3-dimethyl-N-[4-(2-methyl-1H-pyrrolo[2,3-b]pyridin-4-yl)phenyl]butanamide]	59
Cc1cc2c(-c3ccc(NC(=O)[C@@H](N)C(C)(C)C)cc3)ccnc2[nH]1 [Compound F-51, (2S)-2-Amino-3,3-dimethyl-N-[4-(2-methyl-1H-pyrrolo[2,3-b]pyridin-4-yl)phenyl]butanamide]	366
Cc1cc2c(-c3ccc(NC(=O)[C@H](N)CC(C)(C)C)cc3)ccnc2[nH]1 [Compound F-52, (2R)-2-Amino-4,4-dimethyl-N-[4-(2-methyl-1H-pyrrolo[2,3-b]pyridin-4-yl)phenyl]pentanamide]	9.1
CC(C)(C)[C@@H](N)C(=O)Nc1ccc(-c2ccnc3[nH]c(C4CC4)cc23)cc1 [Compound F-54, (2R)-2-Amino-N-[4-(2-cyclopropyl-1H-pyrrolo[2,3-b]pyridin-4-yl)phenyl]-3,3-dimethyl-butanamide]	35.1
CC(C)(C)[C@@H](N)C(=O)Nc1ccc(-c2ccnc3[nH]c(C(F)(F)F)cc23)cc1 [Compound F-56, (2R)-2-Amino-3,3-dimethyl-N-[4-[2-(trifluoromethyl)-1H-pyrrolo[2,3-b]pyridin-4-yl]phenyl]butanamide]	108
Cc1cc(NC(=O)[C@H](N)CC(C)(C)C)ccc1-c1ccnc2[nH]ccc12 [Compound F-60, (2R)-2-Amino-4,4-dimethyl-N-[3-methyl-4-(1H-pyrrolo[2,3-b]pyridin-4-yl)phenyl]pentanamide]	7.8
CC(C)(C)[C@@H](N)C(=O)Nc1ccc(-c2ccnc3[nH]ccc23)c(F)c1 [Compound F-66, (2R)-2-Amino-N-[3-fluoro-4-(1H-pyrrolo[2,3-b]pyridin-4-yl)phenyl]-3,3-dimethyl-butanamide]	57.7
CC(C)(C)[C@@H](N)C(=O)Nc1ccc(-c2ccnc3[nH]ccc23)cc1F [Compound F-71, (2R)-2-Amino-N-[2-fluoro-4-(1H-pyrrolo[2,3-b]pyridin-4-yl)phenyl]-3,3-dimethyl-butanamide]	64.6
Cc1c(-c2ccnc3[nH]ccc23)ccc(NC(=O)[C@H](N)CC(C)C)c1F [Compound F-72, (2R)-2-Amino-N-[2-fluoro-3-methyl-4-(1H-pyrrolo[2,3-b]pyridin-4-yl)phenyl]-4-methyl-pentanamide]	17
Cc1cc(NC(=O)[C@H](N)CC(C)C)c(F)cc1-c1ccnc2[nH]ccc12 [Compound F-73, (2R)-2-Amino-N-[2-fluoro-5-methyl-4-(1H-pyrrolo[2,3-b]pyridin-4-yl)phenyl]-4-methyl-pentanamide]	694
Cc1cc(NC(=O)[C@H](N)C(C)(C)C)c(F)cc1-c1ccnc2[nH]ccc12 [Compound F-74, (2R)-2-Amino-N-[2-fluoro-5-methyl-4-(1H-pyrrolo[2,3-b]pyridin-4-yl)phenyl]-3,3-dimethyl-butanamide]	1060
CC(C)C[C@@H](N)C(=O)Nc1ccc(-c2ccnc3[nH]ccc23)cc1C(F)(F)F [Compound F-76, (2R)-2-Amino-4-methyl-N-[4-(1H-pyrrolo[2,3-b]pyridin-4-yl)-2-(trifluoromethyl)phenyl]pentanamide]	316
CC(C)C[C@@H](N)C(=O)Nc1ccc(-c2ccnc3[nH]ccc23)c(OC(F)F)c1 [Compound F-82, (R)-2-Amino-N-(3-(difluoromethoxy)-4-(1H-pyrrolo[2,3-b]pyridin-4-yl)phenyl)-4-methylpentanamide]	21.5
CC(C)C[C@@H](N)C(=O)Nc1cccc(-c2ccnc3[nH]ccc23)c1 [Compound F-87, (2R)-2-Amino-4-methyl-N-[3-(1H-pyrrolo[2,3-b]pyridin-4-yl)phenyl]pentanamide]	245
CCc1cc(NC(=O)[C@H](N)C(C)(C)C)ccc1-c1ccnc2[nH]ccc12 [Compound F-88, (2R)-2-Amino-N-[3-ethyl-4-(1H-pyrrolo[2,3-b]pyridin-4-yl)phenyl]-3,3-dimethyl-butanamide]	57.5
Cc1cc2c(-c3ccc(NC(=O)[C@H](N)C(C)(C)C)cc3C)ccnc2[nH]1 [Compound F-91, (2R)-2-Amino-3,3-dimethyl-N-[3-methyl-4-(2-methyl-1H-pyrrolo[2,3-b]pyridin-4-yl)phenyl]butanamide]	48.8
Cc1cc2c(-c3ccc(NC(=O)[C@H](N)Cc4ccccc4)cc3)ccnc2[nH]1 [Compound F-92, (2R)-2-Amino-N-[4-(2-methyl-1H-pyrrolo[2,3-b]pyridin-4-yl)phenyl]-3-phenyl-propanamide]	415
